Data from ChEMBL document CHEMBL2202996, “Synthesis, evaluation, and radiolabeling of new potent positive allosteric modulators of the metabotropic glutamate receptor 2 as potential tracers for positron emission tomography imaging” (J Med Chem, 2012).

Key:
[1] = biological target: T1, Sodium-dependent dopamine transporter (Homo sapiens, UniProt Q01959); assay: Binding affinity to DAT
D(1A) dopamine receptor [2] = biological target: T2, D(1A) dopamine receptor (Homo sapiens, UniProt P21728); assay: Binding affinity to dopamine D1 receptor
T2 sequence (P21728 whole entry): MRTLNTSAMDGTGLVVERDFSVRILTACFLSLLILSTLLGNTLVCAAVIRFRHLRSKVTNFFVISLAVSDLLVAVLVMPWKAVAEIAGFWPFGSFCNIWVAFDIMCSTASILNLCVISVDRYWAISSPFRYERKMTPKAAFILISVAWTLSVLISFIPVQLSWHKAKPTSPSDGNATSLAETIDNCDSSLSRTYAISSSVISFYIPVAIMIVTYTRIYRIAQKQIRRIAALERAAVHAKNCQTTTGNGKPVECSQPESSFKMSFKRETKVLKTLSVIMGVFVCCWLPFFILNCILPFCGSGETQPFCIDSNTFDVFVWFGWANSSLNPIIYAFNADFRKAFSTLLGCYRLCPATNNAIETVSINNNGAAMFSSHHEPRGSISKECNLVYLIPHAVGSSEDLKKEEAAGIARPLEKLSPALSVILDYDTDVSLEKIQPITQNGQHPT

[3] = biological target: T1, Sodium-dependent dopamine transporter; assay: Binding affinity to DAT at 10 uM by CEREP assay
D(1A) dopamine receptor [4] = biological target: T2, D(1A) dopamine receptor; assay: Binding affinity to dopamine D1 receptor at 10 uM by CEREP assay
[5] = Fraction unbound in human plasma; assay type: ADME, cell-free
[6] = Fraction unbound in rat plasma; assay type: ADME, cell-free
Liver microsomes [7] = assay: Drug metabolism in rat liver microsomes assessed as M+O oxidative metabolite; assay type: ADME, Microsome
Liver microsomes [8] = assay: Drug metabolism in human liver microsomes assessed as M+O oxidative metabolite; assay type: ADME, Microsome
Liver microsomes [9] = assay: Drug metabolism in rat liver microsomes assessed as O-methylated compound derivative; assay type: ADME, Microsome
Liver microsomes [10] = assay: Drug metabolism in human liver microsomes assessed as O-methylated compound derivative; assay type: ADME, Microsome
CHO [11] = assay: Selectivity ratio for rat mGluR6 to human mGluR2 expressed in CHO cell membranes; assay type: cell-based
CHO [12] = assay: Selectivity ratio for human mGluR4 to human mGluR2 expressed in CHO cell membranes; assay type: cell-based
HEK293 [13] = assay: Selectivity ratio for human mGluR8 expressed in HEK293 cells to human mGluR2 expressed in CHO cell membranes; assay type: cell-based
HEK293 [14] = assay: Selectivity ratio for human mGluR7 expressed in HEK293 cells to human mGluR2 expressed in CHO cell membranes; assay type: cell-based
HEK293 [15] = assay: Selectivity ratio for human mGluR5 expressed in HEK293 cells to human mGluR2 expressed in CHO cell membranes; assay type: cell-based
HEK293 [16] = assay: Selectivity ratio for human mGluR3 expressed in HEK293 cells to human mGluR2 expressed in CHO cell membranes; assay type: cell-based
HEK293 [17] = assay: Selectivity ratio for human mGluR1 expressed in HEK293 cells to human mGluR2 expressed in CHO cell membranes; assay type: cell-based
[18] = Ratio of drug level in brain to plasma of Wistar rat brain at 0.63 mg/kg, iv; assay type: ADME, organism-based; set-up: dose 0.63 mg/kg, route intravenous; conditions: read-out: BPR
[19] = Cmax in Wistar rat brain at 0.63 mg/kg, iv after 5 mins; assay type: ADME, organism-based; set-up: dose 0.63 mg/kg, route intravenous
[20] = Drug level in Wistar rat brain at 0.63 mg/kg, iv after 1 hr; assay type: ADME, organism-based; set-up: dose 0.63 mg/kg, route intravenous; conditions: read-out: Drug uptake
[21] = biological target: T3, Metabotropic glutamate receptor 2 (Homo sapiens, UniProt Q14416); assay: Displacement of [3H]JNJ-40068782 from human mGLuR2 expressed in CHO cell membrane after 60 mins by liquid scintillation counting; assay type: cell membranes
Target sequence in this assay (Q14416 whole entry): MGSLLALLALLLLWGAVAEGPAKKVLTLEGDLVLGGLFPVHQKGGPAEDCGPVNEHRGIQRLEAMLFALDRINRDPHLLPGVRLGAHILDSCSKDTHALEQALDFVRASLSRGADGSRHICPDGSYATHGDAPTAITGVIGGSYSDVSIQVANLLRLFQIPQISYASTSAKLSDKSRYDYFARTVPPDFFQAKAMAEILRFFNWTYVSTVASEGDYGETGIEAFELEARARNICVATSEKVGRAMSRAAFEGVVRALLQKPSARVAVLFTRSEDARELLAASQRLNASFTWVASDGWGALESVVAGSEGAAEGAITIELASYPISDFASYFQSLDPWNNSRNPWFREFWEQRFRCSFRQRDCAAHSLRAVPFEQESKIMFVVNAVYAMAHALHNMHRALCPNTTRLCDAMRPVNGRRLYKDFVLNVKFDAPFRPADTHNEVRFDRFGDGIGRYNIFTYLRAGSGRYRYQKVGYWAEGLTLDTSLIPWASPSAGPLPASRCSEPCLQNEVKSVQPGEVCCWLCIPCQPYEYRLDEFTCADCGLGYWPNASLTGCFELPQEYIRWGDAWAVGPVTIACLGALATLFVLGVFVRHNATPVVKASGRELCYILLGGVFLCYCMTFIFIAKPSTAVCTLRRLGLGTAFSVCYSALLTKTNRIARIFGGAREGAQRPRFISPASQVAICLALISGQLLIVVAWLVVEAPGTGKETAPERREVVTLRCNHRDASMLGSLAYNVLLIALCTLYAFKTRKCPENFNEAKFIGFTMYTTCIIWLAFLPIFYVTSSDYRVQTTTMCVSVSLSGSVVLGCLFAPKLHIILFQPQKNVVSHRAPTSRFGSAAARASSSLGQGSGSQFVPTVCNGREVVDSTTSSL

[22] = biological target: T3, Metabotropic glutamate receptor 2; assay: Agonist activity at human mGLuR2 expressed in CHO cell membrane assessed as […] after 30 mins by scintillation counting relative to control; assay type: functional, cell membranes
Target sequence in this assay (Q14416 19-872 limits assumed): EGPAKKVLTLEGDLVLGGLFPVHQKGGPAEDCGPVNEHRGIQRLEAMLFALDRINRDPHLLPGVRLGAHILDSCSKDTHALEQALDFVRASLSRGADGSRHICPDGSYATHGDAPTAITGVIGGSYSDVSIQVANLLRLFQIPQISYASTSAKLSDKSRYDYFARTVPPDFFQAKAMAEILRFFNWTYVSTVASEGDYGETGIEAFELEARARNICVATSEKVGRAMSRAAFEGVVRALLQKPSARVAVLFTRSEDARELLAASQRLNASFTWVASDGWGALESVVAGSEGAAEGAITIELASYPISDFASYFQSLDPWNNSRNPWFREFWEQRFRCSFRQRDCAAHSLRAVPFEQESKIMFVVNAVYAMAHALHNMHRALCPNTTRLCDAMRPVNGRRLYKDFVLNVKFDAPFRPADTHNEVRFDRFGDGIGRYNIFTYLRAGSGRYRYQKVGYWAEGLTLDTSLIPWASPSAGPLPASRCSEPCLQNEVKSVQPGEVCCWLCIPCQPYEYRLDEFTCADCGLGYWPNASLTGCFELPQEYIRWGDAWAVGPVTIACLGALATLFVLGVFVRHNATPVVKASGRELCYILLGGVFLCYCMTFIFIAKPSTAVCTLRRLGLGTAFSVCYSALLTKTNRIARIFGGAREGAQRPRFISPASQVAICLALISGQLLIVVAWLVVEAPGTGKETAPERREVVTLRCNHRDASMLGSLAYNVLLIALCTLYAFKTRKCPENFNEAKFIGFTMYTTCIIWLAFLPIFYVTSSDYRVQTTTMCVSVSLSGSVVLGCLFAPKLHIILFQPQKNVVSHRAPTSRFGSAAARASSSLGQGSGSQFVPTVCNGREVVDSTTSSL

[23] = biological target: T3, Metabotropic glutamate receptor 2; assay: Agonist activity at human mGLuR2 expressed in CHO cell membrane assessed as […] after 30 mins by scintillation counting; assay type: functional, cell membranes; conditions: read-out: EC50
Target sequence in this assay (Q14416 whole entry): as the sequence (Q14416 whole entry) above

T1 sequence (Q01959 whole entry): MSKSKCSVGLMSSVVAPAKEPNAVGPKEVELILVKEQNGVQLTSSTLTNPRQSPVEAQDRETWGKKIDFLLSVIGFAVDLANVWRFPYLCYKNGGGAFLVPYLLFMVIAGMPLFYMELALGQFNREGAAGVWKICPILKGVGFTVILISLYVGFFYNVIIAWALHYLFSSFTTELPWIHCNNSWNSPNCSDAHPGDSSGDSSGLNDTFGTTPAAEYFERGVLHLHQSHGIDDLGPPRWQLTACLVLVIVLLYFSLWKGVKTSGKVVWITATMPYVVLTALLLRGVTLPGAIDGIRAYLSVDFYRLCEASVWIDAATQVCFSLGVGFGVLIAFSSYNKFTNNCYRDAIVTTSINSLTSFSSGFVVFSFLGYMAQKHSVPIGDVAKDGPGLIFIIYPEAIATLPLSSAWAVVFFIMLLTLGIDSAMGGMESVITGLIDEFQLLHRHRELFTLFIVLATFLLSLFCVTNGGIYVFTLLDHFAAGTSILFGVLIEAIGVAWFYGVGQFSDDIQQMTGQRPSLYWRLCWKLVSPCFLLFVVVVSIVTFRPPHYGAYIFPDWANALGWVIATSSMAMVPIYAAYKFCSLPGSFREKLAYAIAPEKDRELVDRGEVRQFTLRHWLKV

Ki [1]: 5.01 µM
Ki (D(1A) dopamine receptor [2]): ≥ 6.2 µM
Activity [3]: 83%
Activity (D(1A) dopamine receptor [4]): 71%
fraction unbound [5]: < 0.01
fraction unbound [6]: < 0.01
Drug metabolism (Liver microsomes [7]): Active
Drug metabolism (Liver microsomes [8]): Active
Drug metabolism (Liver microsomes [9]): Active
Drug metabolism (Liver microsomes [10]): Active
Kp [18]: 1.1
Cmax [19]: 316 ng/g
concentration at 1 h [20]: 50 ng/g
IC50 [21]: 11.2 nM
Emax [22]: 283%
EC50 [23]: 8.2 nM
SMILES: COc1ccc(F)cc1C1CCN(c2ccn3c(CC4CC4)nnc3c2Cl)CC1
Selectivity ratio (CHO [11]): > 350
Selectivity ratio (CHO [12]): > 350
Selectivity ratio (HEK293 [13]): > 350
Selectivity ratio (HEK293 [14]): > 350
Selectivity ratio (HEK293 [15]): > 350
Selectivity ratio (HEK293 [16]): 40
Selectivity ratio (HEK293 [17]): > 350
